Measured values from patent US7345078B2, “NF-κB inhibitors and uses thereof” (The Board of Trustees of Michigan State University, priority 2002, dated 2008).
pIC50: −log10 of the molar value. Entries after “also recorded” stand apart in the source; their conditions may differ. Like-named read-outs stand apart in the source and are kept apart here.

What was measured:
[1] = system: Micrococcus luteus; assay: standardized disk diffusion method (zone diameter / MIC); type: cell-based; conditions: at the amount printed in the same cell
Description: Compounds 4, 6, and 7 were tested for the inhibition of bacteria. A total of 9 bacterial strains were screened. The following Gram-negative and Gram-positive bacteria were included: Staphylococcus aureus, Enterobacter aerogenes, Esherichia coli, Klebsiella pneumonia, Pseudomonas aeruginosa, Serratia marcescens, Bacillus cerius, Bacillus subtillus and micrococcus luteus. Bacterial isolates were removed from storage, streaked on to nutrient agar plates and incubated for 18-24 hours at 35° C. A working bacterial suspension was prepared by suspending 3-5 isolated colonies in 5 mL saline solution. The turbidity of this suspension was carefully adjusted photometrically to equal that of a 0.5 McFarland standard. The zone diameters were determined by a standardized disk diffusion method using cation-supplemented Mueller-Hinton agar according to NCCLS guidelines (National Committee for Clinical Laboratory Standards. Methods for dilution Antimicrobial Susceptibility Tests for Bacteria that Grow Aerobically. Fifth Edition: Approved Standard M7-A5. Wayne, Pa.: NCCLS (2000)). Minimum inhibitory concentrations (MICs) were considered the lowest concentration that gave a clear zone of inhibition. The inoculated agar plates were incubated for 16-20 hours at 35° C. in ambient air. The diameters of the zones were read in millimeters.

[2] = system: RIF-1 murine tumor; assay: RIF-1 murine model of tumor growth delay; type: in vivo, mice
Description: Tumor cells were injected, bilaterally, into the backs of mice. When tumors reached 100 mm^3, the mice were treated with an intraperitoneal injection of the compound. Tumor volumes were measured 3 times a week until they reached 4 times the size they were on the first treatment day. Data is recorded as “Days to 4×’ or ratio of ‘Days to 4×” of the treated over untreated controls.

[3] = target: T1, NF-κB (Homo sapiens, UniProt P19838+Q04206); assay: EMSA of nuclear NF-κB-DNA binding in nuclear extracts of PMA-stimulated Jurkat leukemia T-cells; type: cell-based; set-up: endogenous in cells; host or cells: Jurkat leukemia T-cells, clone E6-1 (ATCC), PMA-stimulated; nuclear extract; conditions: compound 0.1 μM (100 nM)
T1 sequence (Q04206 whole entry): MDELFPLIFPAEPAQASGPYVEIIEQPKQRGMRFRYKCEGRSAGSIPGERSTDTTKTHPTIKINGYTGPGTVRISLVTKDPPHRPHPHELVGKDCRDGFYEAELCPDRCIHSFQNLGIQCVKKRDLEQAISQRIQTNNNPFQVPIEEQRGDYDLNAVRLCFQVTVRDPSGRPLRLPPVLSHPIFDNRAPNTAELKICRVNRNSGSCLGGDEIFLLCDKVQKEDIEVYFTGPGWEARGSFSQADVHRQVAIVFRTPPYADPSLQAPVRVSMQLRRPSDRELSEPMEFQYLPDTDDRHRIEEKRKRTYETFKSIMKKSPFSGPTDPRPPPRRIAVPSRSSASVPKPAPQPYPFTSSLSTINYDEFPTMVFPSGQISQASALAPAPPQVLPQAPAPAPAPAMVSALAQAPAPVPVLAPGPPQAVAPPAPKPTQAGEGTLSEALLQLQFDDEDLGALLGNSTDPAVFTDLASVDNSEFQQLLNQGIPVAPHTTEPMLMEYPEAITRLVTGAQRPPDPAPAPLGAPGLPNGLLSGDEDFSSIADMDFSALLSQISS
T1 sequence (P19838 1-433 limits assumed): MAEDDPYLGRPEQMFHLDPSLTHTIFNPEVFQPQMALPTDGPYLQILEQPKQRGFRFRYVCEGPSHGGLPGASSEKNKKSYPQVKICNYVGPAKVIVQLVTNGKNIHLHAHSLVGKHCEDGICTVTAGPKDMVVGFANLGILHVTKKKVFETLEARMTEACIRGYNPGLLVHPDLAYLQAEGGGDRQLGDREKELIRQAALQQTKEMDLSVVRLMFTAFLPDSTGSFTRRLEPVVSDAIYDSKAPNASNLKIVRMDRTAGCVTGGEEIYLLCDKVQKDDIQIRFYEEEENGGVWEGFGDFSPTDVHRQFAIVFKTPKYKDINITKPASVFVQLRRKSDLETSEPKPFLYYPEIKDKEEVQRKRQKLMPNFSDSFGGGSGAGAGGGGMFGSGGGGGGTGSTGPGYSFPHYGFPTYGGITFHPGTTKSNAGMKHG
Description: (§1) All compounds were evaluated for their potential anti-inflammatory activity by examining the activity of NF-κB in vitro in nuclear extracts using the procedure from Breton and Charbot-Fletcher (Breton et al., J. Pharmacol. Exp. Ther. 282 459-466 (1997)). […] The Jurkat cells (1×10^7 cells/mL) are subsequently treated with various concentrations of imidazoline for 30 minutes at 37° C. followed by PMA stimulation (5.0 ng/mL) for an additional 5 hours. Nuclear extracts are incubated for 20 minutes with a double stranded Cy3 labeled NF-κB consensus oligonucleotide, 5′-[…]-3′ (SEQ ID NO:1) at room temperature. The crude mixture is loaded on a 5% non-denaturing polyacrylamide gel prepared in 1×Tris borate/EDTA buffer and electrophoresed at 200V for 2 hours. After electrophoresis the gel is analyzed using a phosphorimager (Biorad FX PLUS) for detection of the NF-κB-DNA binding.
EMSA assay for NF-κB-DNA binding was as follows. […] The Jurkat cells (1×10^6 cells/mL) were subsequently treated with various concentrations of the compounds for 30 minutes at 37° C. and 5% CO2 followed by PMA (50 ng/mL) and PHA ([…]) stimulation for an additional 30 minutes. The cells were harvested by centrifugation, washed in ice cold PBS and the nuclear extracts were prepared as previously described (Dignam, et al., Nucl. Acids Res 11: 1475-1489 (1983)). The protein concentration of the extracts was determined according to the Method of Bradford (1976) with BioRad reagents. Nuclear extracts are incubated for 20 minutes at room temperature with a double stranded Cy3 labeled NF-kB consensus oligonucleotide, 5′-[…] CCAGGC-3′ (SEQ ID NO:1). The binding mixture ([…]) contained 10 mM HEPES-NaOH pH 7.9, 4 mM tris-HCl, pH 7.9, 6.0 mM KCl, 1 mM EDTA, 1 mM DTT, 10% glycerol, 0.3 mg/mL bovide serum albumin and […] of poly (dI.dC). The binding mixtures ([…] of nuclear extract protein) were incubated for 20 minutes at room temrperature with 0.16 pmol of Cy3 labeled oligonucleotide. The mixture was loaded on a 4% polyacrylamide gel prepared in 1× tris borate/EDTA buffer and was electrophoresed at 200 V for 20 minutes. After electrophoresis the gel was analyzed using a phosphorimager (Biorad FX plus) for detection of the NF-kB—DNA binding.

[4] = target: T1, NF-κB; assay: IC50 values in Mammalian Jurkat cells Leukemia T cells; type: cell-based; set-up: endogenous in cells; host or cells: Jurkat leukemia T-cells, clone E6-1 (ATCC), PMA-stimulated; nuclear extract; conditions: concentration at which 50% of the protein/enzyme is inhibited in cells
Description: as §1
IC50 values in Mammalian Jurkat cells Leukemia T cells: IC50 value is defined as the concentration of compounds at which 50% of the protein/enzyme is inhibited in cells (Table 3).

[5] = system: CEM cells
Description: Imidazolines 28-33 were evaluated for their ability to enhance the activity of camptothecin in CEM cells. Induction of apoptosis is the hallmark of most chemotherapeutic agents including camptothecin. The systematic disassembly of apoptotic cells is accomplished by active caspases (Thornberry et al., Nature 356: 768-774 (1992); Nicholson et al., Trends Biochem. Sci. 22: 299-306 (1997)). A standard apoptosis assay is Promega's APO-ONE homogeneous caspase-3/7 assay, which takes advantage of this caspase activity to directly quantify the induction of apoptosis in cells (Thornberry et al., Nature 356: 768-774 (1992); Nicholson et al., Trends Biochem. Sci. 22: 299-306 (1997)). According to the hypothesis that NF-κB inhibition should enhance the activity of chemotherapeutic agents via the inhibition of anti-apoptotic signaling pathway—thus enhancement of apoptosis—(Boland, Biochem Soc Trans 29: 674-678 (2001); Chiao et al., Cancer 95: 1696-1705 (2002)), we investigated the effects of the imidazolines using this caspase-3/7 assay. This assay quantifies the level of apoptotic cell death induced by camptothecin with and without the imidazolines and will establish the direct level of enhancement of apoptosis by camptothecin.
Induction of apoptosis using caspase 3/7 assay was as follows. CEM cells (CCRF-CEM); Amer. Type Culture Collection, Rockville, Md.) were grown in RPMI-1640 Media (Gibco-BRL, Rockville, Md.) supplemented with 10% fetal bovine serum, penicillin (614 ηg/mL), streptomycin (10 μg/mL) and hepes buffer, pH 7.2 at 37° C., 5% CO2. DMSO was used as the vector for all drugs and added in the control experiments. Cell cultures were treated with 1 μM, 0.1 μM or 10 nM of the imidazolines and allowed to incubate at 37° C., 5% CO2. An aliquote was transferred to a 96-well plate and mixed with an equal volume of Apo-ONE™ Homogenous Caspase-3/7 assay (Promega Corporation) reagent. The contents of the plate were gently mixed and allowed to incubate for 1 hour. The fluorescence of each well was then measured on a Molecular Imager FX Pro at 532 nm. All reported data was the average of two independent experiments unless otherwise indicated.

[6] = IP, doses 5.0 and 50 mg/kg
Description: Prior to the combinatorial studies, the toxicity of the compounds was determined in the mouse model. […] In short, the drugs are dissolved in DMSO and 100 μL given to the mice on day 0 by intraperitoneal injection (IP). […] Weight and death were the two measures of toxicity.

[7] = system: NF-κB p50/p65 heterodimer; assay: p65-ELISA assay of NF-κB nuclear translocation in Jurkat cells; type: cell-based, Human; conditions: concentrations 100 ηM-5.0 μM, 30 minutes prior to PMA activation
Description: Inhibition of the nuclear translocation of the p50/p65 heterodimer of NF-κB was confirmed by a p65-ELISA assay. Cells were treated with the PDTC (positive control-reported to inhibit IκB phosphorylation thus inhibiting NF-κB translocation), and imidazoline 32, 30 minutes prior to PMA activation, followed by the isolation of the nuclear extract after a 30 minute incubation period.
The quantity of p65/p50 heterodimer that has translocated into the nucleus was measured using a NF-κB p65 sandwich ELISA assay (Imgenex Corp.). Jurkat cells were grown to 2×10^6 cells/mL and treated with 50 ng/mL PMA and 1 μg/mL PMA/PHA and incubated at 37° C., 5% CO2. The cells are harvested after 30 minutes and nuclear extracts are prepared as previously described by Dignam and coworkers (Dignam, et al., Nucl. Acids Res 11: 1475-1489 (1983)). The NF-κB p65 sandwich ELISA kit was then used to monitor and quantify p65 translocation into the nucleus according to the manufacturers protocol.

[8] = target: T1, NF-κB; assay: EMSA of camptothecin activated NF-κB in CEM leukemia T-cells; type: cell-based; set-up: endogenous in cells; nuclear extract; conditions: for inhibition of camptothecin induced NF-κB nuclear binding: CPT 0.1 μM, 32 at 10 μM to 10 nM, PDTC 5 μM
Description: CEM cells were incubated with and without varying concentrations of camptothecin (CPT). Positive controls included PMA/PHA activation (FIG. 11, lane 2). Lane 3 included a positive control using PMA/PHA activation followed by the treatment of the extract with a NF-κB p65 antibody to unambiguously identify the NF-κB/DNA complex.
CEM cells were treated with various concentration of imidazoline 32, 30 minutes prior to activation by camptothecin (0.1 μM). […] Control lanes include: DNA only (lane 1), PMA/PHA activated NF-κB (lane 2), PMA/PHA activated NF-κB treated with a p65 antibody, which provide a supershift (lane 3) and the unactivated control (lane 4).
EMSA assay for NF-κB-DNA binding was as follows. […] The cells were harvested by centrifugation, washed in ice cold PBS and the nuclear extracts were prepared as previously described (Dignam, et al., Nucl. Acids Res 11: 1475-1489 (1983)). The protein concentration of the extracts was determined according to the Method of Bradford (1976) with BioRad reagents. Nuclear extracts are incubated for 20 minutes at room temperature with a double stranded Cy3 labeled NF-kB consensus oligonucleotide, 5′-[sequence] […] The binding mixture (25 mL) contained 10 mM HEPES-NaOH pH 7.9, 4 mM tris-HCl, pH 7.9, 6.0 mM KCl, 1 mM EDTA, 1 mM DTT, 10% glycerol, 0.3 mg/mL bovide serum albumin and 1 mg of poly (dI.dC). The binding mixtures (10 mg of nuclear extract protein) were incubated for 20 minutes at room temrperature with 0.16 pmol of Cy3 labeled oligonucleotide. The mixture was loaded on a 4% polyacrylamide gel prepared in 1× tris borate/EDTA buffer and was electrophoresed at 200 V for 20 minutes. After electrophoresis the gel was analyzed using a phosphorimager (Biorad FX plus) for detection of the NF-kB—DNA binding.

SMILES	zone of inhibition diameter [1] [mm]	inhibition at 0.1 µM [3] [%]	pIC50 [4]	tolerability in mice [6]	inhibition of NF-κB p50/p65 heterodimer nuclear translocation [7]	inhibition of camptothecin induced NF-κB nuclear binding [8]	other results
C[C@]1(C(=O)O)N=C(c2ccccc2)N(Cc2ccccc2)[C@H]1c1ccncc1 (racemic) [Compound 6, Dl-(3S,4S)-1-Benzyl-4-methyl-2-phenyl-5-pyridin-4yl-4,5-dihydro-1H-imidazole-4-carboxylic acid]	10	84	6.52	–	–	–	Days Delay (tumor growth delay) ([2]; IP, imidazoline 100 mg/kg, cis-platin 4 mg/kg, camptothecin 6 mg/kg): -0.41 days; Median (days to 4x) ([2]; IP, imidazoline 100 mg/kg, cis-platin 4 mg/kg, camptothecin 6 mg/kg, untreated 7.0): 6.6 days; Days to 4x (Ave ±SE) ([2]; IP, imidazoline 100 mg/kg, cis-platin 4 mg/kg, camptothecin 6 mg/kg, untreated 7.3 ± 0.6): 6.6 ± 0.3 days; chemopotentiation of camptothecin ([2]; combinational treatment with camptothecin (CPT), RIF-1 tumors in mice): significant chemopotentiation; chemopotentiation of cis-platin ([2]; combinational treatment with cis-platin (CDDP), RIF-1 tumors in mice): significant chemopotentiation
C[C@]1(C(=O)O)N=C(c2ccccc2)N[C@H]1c1ccccc1 (racemic) [Compound 7, Dl (3S,4S)-4-Methyl-2,5-diphenyl-4,5-dihydro-1H-imidazole-4-carboxylic acid]	10	38	7.70	–	–	–	–
C[C@]1(C(=O)O)N=C(c2ccccc2)N(c2ccc(F)cc2)[C@H]1c1ccccc1 (racemic) [Compound 28, dl-(4S,5S)-1-(4-Fluorophenyl)-4-methyl-2,5-diphenyl-4,5-dihydro-1H-imidazole-4-carboxylic acid]	–	–	–	well tolerated	–	–	Apoptosis (±S.D.) ([5]; Compound 1.0 μm alone, T-cells, 48 hour period, cells only = 1.00 (normalized)): 1.25 ± 0.18
O=C(O)[C@@]1(c2ccccc2)N=C(c2ccccc2)N(Cc2ccccc2)[C@H]1c1ccccc1 (racemic) [Compound 32, dl-(4S,5S)-1-Benzyl-2,4,5-triphenyl-4,5-dihydro-1H-imidazole-4-carboxylic acid]	–	–	–	well tolerated	inhibition of nuclear translocation of NF-κB; also recorded: significantly inhibits	inhibited camptothecin induced NF-κB nuclear binding in a dose responds manner	Apoptosis (±S.D.) [5]: 1.98 ± 0.0001; chemopotentiation of cis-platin (apoptosis) ([5]; CEM cells, 0.1 micromolar cis-platin + 0.1 micromolar 32 versus 1.0 micromolar cis-platin): chemopotentiation of cis-platin; also recorded: chemopotentiate cis-platin; induction of apoptosis in combination with camptothecin ([5]; CEM cells, CPT 0.1 μM with varying concentrations of imidazoline, 48 hours): dose dependent enhancement of apoptosis; NF-κB-DNA complex formation ([8]; 0.1 μM CPT + 10 μM compound 32 (lane 7 versus lane 5)): significant decrease
C[C@]1(C(=O)O)N=C(c2ccccc2)N(Cc2ccccc2)[C@H]1c1ccccc1 (racemic) [Compound 33, dl-(4S,5S)-1-Benzyl-4-methyl-2,5-diphenyl-4,5-dihydro-1H-imidazole-4-carboxylic acid]	–	–	–	well tolerated	–	–	–
N.S=C(S)N1CCCC1 [PDTC, reference compound]	–	–	–	–	significant inhibition; also recorded: inhibited NF-κB translocation	decrease of binding	–
